What was measured:
A549 cells [1] = experiment: Mitochondrial/cytosolic distribution by LC-ESI-MS; type: cell-based, Human; details: for intracellular hydrolysis of the ester to the parent phenol: 4 h incubation, 0.1 and 1 μM; for penetration into cells / intracellular concentration after direct incubation: A549, 4 h incubation with 0.1 and 1 μM; for mitochondrial vs cytosolic distribution after incubation with 2: 4 h incubation with 0.1 and 1 μM of 2; for cytosolic concentration of 15 after incubation with 1: cytosolic fraction
Procedure: (§1) Mitochondria were isolated as reported ([Riganti et al., 2013a]). To isolate mitochondrial fractions, 5 × 10^6 cells were washed twice in ice-cold PBS, then lysed in 0.5 ml buffer A (50 mM Tris, 100 mM KCl, 5 mM MgCl2, 1.8 mM ATP, 1 mM EDTA; pH 7.2), supplemented with protease inhibitor cocktail III (Calbiochem. La Jolla, CA, United States), 1 mM phenylmethylsulfonyl fluoride and 250 mM NaF. Samples were clarified by centrifuging at 650 × g for 3 min at 4°C. The supernatant was collected and centrifuged at 13,000 × g for 5 min at 4°C. This supernatant, containing the cytosolic fraction, was stored at -80°C until the use. The pellet containing mitochondria was washed in 0.5 ml buffer A and re-suspended in 0.25 ml buffer B (250 mM sucrose, 15 mM K2HPO4, 2 mM MgCl2, 0.5 mM EDTA, 5% w/v, BSA). A 50 μl aliquot was sonicated and used for the measurement of protein content or Western blotting; the remaining part was stored at -80°C until the use. To confirm the presence of mitochondrial proteins in the extracts and the absence of cytosolic contamination in the mitochondrial fraction, 10 μg of each sonicated sample were subjected to SDS–PAGE and probed with an anti-porin antibody (Abcam, Cambridge, United Kingdom), a mitochondrial marker, and with an anti-glyceraldehyde 3-phosphate dehydrogenase antibody (GAPDH; Santa Cruz Biotechnology Inc., Santa Cruz, CA, United States), a cytosolic marker. Mitochondrial extracts were used only if they had detectable levels of porin and undetectable levels of GAPDH. To exclude any mitochondrial contamination in the cytosolic extracts, the absence of porin and the presence of GAPDH in the latter was analyzed by Western blotting (Supplementary Figure S1). Nuclear proteins were extracted using the Nuclear Extract Kit (Active Motif, La Hulpe, Belgium). 10 μg of nuclear extracts were subjected to SDS–PAGE and probed with antibodies against: proliferator-activated receptor gamma coactivator 1-α (PGC-1α; Abcam), an index of increased mitochondrial biogenesis ([Buondonno et al., 2016]), or TATA box Binding Protein (TBP; Santa Cruz Biotechnology Inc.), as control of equal protein loading.
(§2) The amount of 1, 2, 15, and 16 in the mitochondrial and cytosolic fractions was determined by LC-ESI-MS analyses. LC-ESI-MS analyses were performed with an Acquity Ultra Performance LC^TM (Waters Corporation, Milford, MA, United States), equipped with BSM, SM, CM, and PDA detector. All the chromatographic separations were performed on a Zorbax Eclipse XDB-C18 (5 μm, 150 mm × 4.6 mm) (Agilent Technologies) as a stationary phase. The supernatant samples obtained from incubation were filtered through a 0.45 μm pore size PTFE membrane filter before use. Aliquots (5 μl) were injected onto the system and eluted with a mobile phase (flow rate, 0.5 ml/min) consisting of A, 0.1% formic acid solution, and B, acetonitrile. The following gradient was used: 0–5 min (A = 50%, B = 50%), 5–7 min (to A = 20%, B = 80%), 7–8 min (A = 20%, B = 80%), 8–10 min (to A = 50%, B = 50%). The eluate was injected into the electrospray ion source (ESI), and monitored using Micromass Quattro microTM API ESCi multi-mode ionization Enabled as detector. MS spectra were acquired and processed using MassLynx software. The operating conditions on the triple quadruple mass spectrometer were as follows: positive mode; drying gas (nitrogen) heated at 350°C at a flow rate of 800 l/h; nebulizer gas (nitrogen) at 80 l/h; capillary voltage in positive mode at 3000 V; cone voltage at 30 V. The molecular ion [M]^+ was employed for quantitative measurements of analytes. The values obtained from integration of the peak of compounds were interpolated in a calibration curve obtained using standard solutions at 0.01 to 5 μM. The amount of each compound in the mitochondrial and cytosolic fractions was expressed as pmol/mg proteins.
(§3) FIGURE 5 Intra-mitochondrial and cytosolic accumulation of TPP-derivatives. […]

BEAS-2B cells [2] = experiment: Mitochondrial/cytosolic distribution by LC-ESI-MS; type: cell-based, Human; details: 4 h incubation with 0.1 and 1 μM
Procedure: as §1, §2, §3

BEAS-2B cells [3] = experiment: Cell viability (neutral red); type: cell-based, Human; details: for IC50: Homo sapiens, BEAS-2B normal bronchial epithelial cells, cell viability, CompuSyn; for cell viability: BEAS-2B, 0.1, 1 or 10 μM, 72 h
Excerpt: (§4) Human colon cancer HT29 cells, colon-derived normal fibroblast CCD-18Co cells, lung cancer A549 cells, normal human bronchial epithelial (immortalized with adenovirus 12-SV40 virus hybrid Ad12SV40) BEAS-2B cells, breast cancer MDA-MB-231 cells, normal breast epithelial MCF10A cells, human osteosarcoma U-2OS cells were purchased from ATCC (Manassas, VA, United States). […] All subjects gave written informed consent in accordance with the Declaration of Helsinki. Cells were maintained in medium supplemented with 10% v/v fetal bovine serum, 1% v/v penicillin-streptomycin, 1% v/v L-glutamine. Morphological analysis was performed with a bright field microscope (Leica Microsystems, Wetzlar, Germany). At least 5 fields/experimental condition were examined.
(§5) LDH activity was measured in the extracellular medium and in the cell lysate: 50 μl of extracellular medium or 5 μl of cell lysate were incubated at 37°C with 5 mM NADH. The reaction was started by adding 20 mM pyruvic acid and was monitored for 6 min, measuring absorbance at 340 nm using a Synergy HT Multi-Detection Microplate Reader (Bio-Tek Instruments, Winoosky, MT, United States). […] Both intracellular and extracellular enzyme activities were expressed as μmol NADH oxidized/min/dish. The results were expressed as percentage of extracellular LDH versus total (intracellular plus extracellular) LDH. […] The absorbance of untreated cells was considered as 100% viability; the results were expressed as percentage of viable cells versus untreated cells. IC50 was calculated with the CompuSyn software^1.

[4] = Lipophilicity, shake-flask n-octanol/PBS pH 7.4; type: physicochemical; details: n-octanol/50 mM PBS pH 7.4, shake-flask, room temperature, at least six measurements
Procedure: The partition coefficient between n-octanol and PBS at pH 7.4 (log P) was obtained by shake-flask technique at room temperature. In the shake flask experiments 50 mM PBS pH 7.4 was used as aqueous phase; the organic (n-octanol) and aqueous phase (PBS) were mutually saturated by shaking for 4 h. The compounds were solubilised in the buffered aqueous phase at a concentration of 30 μg/ml and appropriate amounts of n-octanol were added. The two phases were shaken for about 20 min, by which time the partitioning equilibrium of solutes is reached, and then centrifuged (10000 rpm, 10 min). The concentration of the solutes was measured in the aqueous phase by UV spectrophotometer (UV-2501PC, Shimadzu); the values of absorbance (223, 268 and 275 nm) were interpolated in calibration curves obtained using standard solutions of compounds (concentration range 30–0.5 μg/ml; r^2 > 0.99). Each log P-value is an average of at least six measurement.

A549 cells [5] = experiment: Cell viability (neutral red); type: cell-based, Human; details: for IC50: cell viability, CompuSyn; for cell viability: A549, 0.1, 1 or 10 μM, 72 h
Excerpt: as §4, §5

Compound | intracellular hydrolysis of the ester to the parent phenol (A549 cells [1]) | penetration into cells (A549 cells [1]) | concentration in BEAS-2B cells compared with A549 cells (BEAS-2B cells [2]) | IC50 (BEAS-2B cells [3]) [µM] | logP [4] | mitochondrial vs cytosolic distribution after incubation with 2 (A549 cells [1]) | IC50 (A549 cells [5]; A549 lung cancer cells) [µM] | IC50 (A549 cells [5]; Homo sapiens, A549, A549 lung cancer cells) [µM] | cytosolic concentration of 15 after incubation with 1 (A549 cells [1]; 4 h incubation with 0.1 μM of 1) | mitochondrial accumulation of 15 after incubation with 1 (A549 cells [1]; 4 h incubation with 0.1 μM of 1, mitochondrial fraction) | cytosolic concentration of 15 after incubation with 1 (A549 cells [1]; 4 h incubation with 1 μM of 1) | intracellular concentration after direct incubation (A549 cells [1]) | intracellular concentration after direct incubation (BEAS-2B cells [2]) | cell viability (A549 cells [5]) | cell viability (BEAS-2B cells [3])
CC(=O)Oc1ccc(C[P+](c2ccccc2)(c2ccccc2)c2ccccc2)cc1.[Br-] [Compound 1] | fast hydrolysis into phenol 15 | penetrate in good extent | at least ten fold lower | 5.26 ± 0.25 | 0.64 | – | – | – | – | – | – | – | – | – | –
O=C(Oc1ccc(C[P+](c2ccccc2)(c2ccccc2)c2ccccc2)cc1C(F)(F)F)c1ccccc1.[Br-] [Compound 2] | more stable with respect to acetate | penetrate in good extent | at least ten fold lower | 7.36 ± 0.45 | 3.15 | accumulate almost exclusively at mitochondrial level | 0.55 ± 0.07 | < 1 | – | – | – | – | – | – | –
Oc1ccc(C[P+](c2ccccc2)(c2ccccc2)c2ccccc2)cc1.[Br-] [Compound 15] | – | – | – | – | 0.5 | – | – | – | below detection limit | easily detectable | very low | very low | very low | nor reduced cell viability | nor reduced cell viability
Oc1ccc(C[P+](c2ccccc2)(c2ccccc2)c2ccccc2)cc1C(F)(F)F.[Br-] [Compound 16] | – | – | – | – | 1.02 | accumulate almost exclusively at mitochondrial level | – | – | – | – | – | very low | very low | nor reduced cell viability | nor reduced cell viability

Source: PMC5994430, “Mitochondrial Delivery of Phenol Substructure Triggers Mitochondrial Depolarization and Apoptosis of Cancer Cells” (Frontiers in Pharmacology, 2018)
